Measured values: patent publication US9289443B2, “Pharmaceutical composition and method for preventing or treating hepatitis C” (INDUSTRIAL TECHNOLOGY RESEARCH INSTITUTE, priority 2010, dated 2016)
Where two headings read alike, the source gives them in different places.

How the values were obtained:
[1] = Cell cytotoxic test (MTT) on Huh-luc/neo-ET cells; type: cell-based; conditions: human, concentration for 50% cell kill, two-day culture
Description: (§1) Cell Cytotoxic Test on Huh-luc/noe-ET Cells
(§2) Huh-luc/neo-ET cells with a concentration of 2.5×10^4 cells/100 μl/well were seeded into a 96 well culture plate (Corning Incorporation COSTAR, 3599) and placed into a cell incubator for culturing.
(§3) The next day, the oleanolic acid derivatives as listed in the following Tables 1 and 2 were diluted with a DMEM culture medium to the concentrations of 28.73 μg/ml, 9.57 μg/ml, 3.19 μg/ml, 1.06 μg/ml, 0.35 μg/ml, 0.11 μg/ml, 0.039 μg/ml and 0.013 μg/ml, respectively, or diluted to the concentrations of 114.92 μg/ml, 38.33 μg/ml, 12.77 μg/ml, 4.25 μg/ml, 1.42 μg/ml, 0.46 μg/ml, 0.16 μg/ml and 0.057 μg/ml, respectively. The initial medium in the 96 well culture plate was sucked out by a vacuum pump (DOAT-704AA) without removing the cells. Then, the culture medium containing the oleanolic acid derivatives were added into the 96 well culture plate containing 100 μl/well of the cells as the experiment groups, while the untreated culture mediums were added to the cells as a control.
(§4) After a two-day culture, the medium was removed and each well containing cells was washed by 100 μl of 1×PBS (1 mM KH2PO4, 10 mM Na2HPO4, 137 mM NaCl, 2.7 mM KCl) twice. Precipitates were recorded and PBS was removed. 50 μl of the medium containing 0.5 mg/ml of MTT (Sigma, M2128) was added into each well of the 96 well culture plate. The 96 well culture plate was placed in a CO2 culture incubator for 1 hour. Subsequently, 150 μl of DMSO (Riedel-de Haül, 60153) was added to each well of the 96 well culture plate and vortexed (KS shaker Type 670) to thoroughly mix the resulting purple precipitates. The 96 well culture plate was then placed in a continuous wave length microwell plate analysis system (Molecular Devices, SPECTRAMAX 190) to measure the absorbance of cells at a wavelength of 560 nm.
(§5) The average absorbance of the control was set as 100% of the cell survival rates (%) to calculate the cell survival rates (%) of the experiment groups with different concentrations of the oleanolic acid derivatives.
(§6) The cell survival rate was calculated by the following formula: Absorbance of the experiment group/Absorbance of the control×100%
(§7) The data of the cell survival rates for all experiment groups were plotted on an x-y graph to see the distribution. A trend line was obtained. […]

Huh-luc/neo-ET cells = test: Cell cytotoxic test (MTT) on Huh-luc/neo-ET cells; type: cell-based; conditions: concentration for 15% cell kill, two-day culture
Description: as §1, §2, §3, §4, §5, §6, §7

[2] = tested on: HCV replicon system (Huh-luc/neo-ET cell carrying I389luc-ubi-NS3-3'/ET); test: Inhibition of the HCV replication by determining the firefly luciferase activity (HCV replicon system); type: cell-based, Hepatitis C virus; conditions: for EW (CC50/IC50): ratio of CC50/IC50
Text: HCV replicon system was used to test the effects of compounds on the treatment and prevention of hepatitis C. The HCV replicon system has been acknowledged as a screening tool for new drugs (Lohmann, V. et al., 1999, Replication of subgenomic hepatitis C virus RNAs in hepatoma cell line, Science. Vol. 285, 110-113; Bartenschlager, R. 2002, Hepatitis C virus replicons: potential role for drug development, Nature Reviews/Drug Discovery. Vol. 1, 911-916; Vorlijk, J. M. et al., 2003, A replicon-based bioassay for the measurement of interferons in patients with chronic hepatitis C, Journal of Virological Methods. 110:201-209). The HCV replicon system includes a Huh-luc/neo-ET cell carrying I389luc-ubi-NS3-3′/ET gene construct which monitors the replicative capability of the HCV. In the HCV replicon system, a firefly luciferase-ubiquitin-neomycin fusion protein is expressed by the translation of the internal ribosomal entry site (IRES) of the HCV, and the hepatitis C viral nonstructural proteins (NS3-5B), which includes protease, helicase and polymerase, are expressed by the translation of the IRES of the encephalomyocarditis virus (EMCV).
The IRES of the hepatitis C virus or the hepatitis C viral nonstructural proteins consist of a replication complex. When the replication complex is affected by the candidate compound, the activity of the HCV replicon system is inhibited and the activity of the luciferase is reduced. Accordingly, the inhibition of the HCV can be estimated by determining the activity of the intensity of the luciferase expressed by the Huh-luc/noe-ET cell.
Inhibition of the HCV Replication by Determining the Firefly Luciferase Activity
as §2
The oleanolic acid derivatives as listed in Table 2 were co-cultured with Huh-luc/neo-ET cells for 2 days. The mediums were washed twice by 100 μl of 1×PBS (1 mM KH2PO4, 10 mM Na2HPO4, 137 mM NaCl, 2.7 mM KCl) and PBS was removed. 35 μl of 1× passive lysis buffer (Promega, E1941) was added to the cells and vortexed for 10 minutes to thoroughly lysis the cells.
30 μl/well of the cell suspension was then added to a 96 well white plate (NUNC, 236108) for the measurement of the luciferase activity. Subsequently, 40 μl/well of luminescence analysis buffer and 20 μl/well of luminescence substrate (1 mM D-Luciferin) were added into the 96 well white plates. The luciferase activity (Rlu/s) was measured by a microplate luminescence meter (Berthold, MPL4) immediately.
The luciferase activity of the control was set as a standard to calculate the inhibition rates (%) of HCV of the experiment groups. The inhibition rates was calculated by the following formula: […]
After the test compounds were serial diluted and the inhibition rates of the HCV replication were determined at different concentrations, the concentration at 50% inhibition of the HCV replication (IC50) was calculated by grafit5 software (Erithacus Software).
For each experiment, 0.5 ng/ml and 0.1 ng/ml of the PEG IFN alpha-2a were used as positive controls for the IC50 test. Meanwhile, 1 μg/ml of cyclosporine A (CsA) was also used as a positive control for the IC50 test.

[3] = Hepatitis C virus, Huh-luc/neo-ET, 48 h, compound concentration 10 μM, 2 days co-culture, luciferase activity, read-out: Inhibition rate (%)
[4] = Hepatitis C virus, concentration for 50% inhibition of the HCV replication, Huh-luc/neo-ET replicon cells, read-out: IC50

| Compound | CC50 at 2 days [1] | CC15 (Huh-luc/neo-ET cells) | inhibition at 10 µM [2, 3] | IC50 [2, 4] | EW (CC50/IC50) [2] | IC50 ([2]; Hepatitis C virus, Huh-luc/neo-ET) | inhibition at 10 µM ([2]; Hepatitis C virus, Huh-luc/neo-ET, 48 h, read-out: Inhibition rate (%)) | inhibition at 8 µM ([2]; Hepatitis C virus, Huh-luc/neo-ET, 48 h, compound concentration 8 μM, 2 days co-culture, luciferase activity, read-out: Inhibition rate (%)) | inhibition at 1 µM ([2]; Hepatitis C virus, Huh-luc/neo-ET, 48 h, compound concentration 1 μM, 2 days co-culture, luciferase activity, read-out: Inhibition rate (%)) | inhibition at 2 µM ([2]; Hepatitis C virus, Huh-luc/neo-ET, 48 h, compound concentration 2 μM, 2 days co-culture, luciferase activity, read-out: Inhibition rate (%)) | inhibition at 5 µM ([2]; Hepatitis C virus, Huh-luc/neo-ET, 48 h, compound concentration 5 μM, 2 days co-culture, luciferase activity, read-out: Inhibition rate (%)) |
| --- | --- | --- | --- | --- | --- | --- | --- | --- | --- | --- | --- |
| CC1(C)CC2C3=CCC4[C@@]5(C)CC[C@H](OC6OCC(O)C(OC7OC(CO)C(O)C(O)C7O)C6O)C(C)(C)C5CC[C@@]4(C)[C@]3(C)C[C@H](O)[C@@]2(CO)[C@H](OC(=O)c2ccccc2)C1 (stereo partly drawn) [A22] | 40 µM | 8.62 µM | -0.8 ± 5.7% |  |  |  |  |  |  |  |  |
| C[C@@H]1OC(O[C@H]2C(OC(=O)[C@]34CCC(C)(C)C[C@H]3C3=CC[C@@H]5[C@@]6(C)C[C@H](O)[C@@H]7OC8O[C@H](CO)[C@@H](O)[C@H](O)[C@H]8OC8OC[C@H](O)[C@H](O)[C@H]8OC(=O)CC(C)(O)CC(=O)OC[C@H]7[C@@H]6CC[C@@]5(C)[C@]3(C)CC4)OC[C@H](O)[C@@H]2O)[C@H](O)[C@H](OC2OC[C@@H](O)[C@H](O)[C@H]2O)[C@H]1O (stereo partly drawn) [A02] | 15.2 µM | 2.9 µM | 96.7 ± 0.6% | 0.34 ± 0.06 µM | 44.71 |  |  |  |  |  |  |
| C=CC(C)(CC/C=C(\CO)C(=O)OC1CC2(C(=O)OC3OCC(OC4CC(CO)C(O)C(OC5OC(CO)C(OC6OC(C)C(O)C(O)C6O)C(O)C5O)C4O)C(O)C3O)CCC3(C)C(=CCC4C5(C)CCC(OC6OC(CO)C(OC7OC(CO)C(O)C(OC8OCC(O)C(O)C8O)C7O)C(O)C6O)C(C)(C)C5CCC43C)C2CC1(C)C)OC1OC(C)C(O)C(O)C1O (stereo not drawn) [A27] | 76.7 µM | 19.44 µM | 96.9 ± 0.6% | 0.72 ± 0.07 µM | 106.56 |  |  |  |  |  |  |
| C=CC(C)(O)CC/C=C(\C)C(=O)OC1C(OCC2OC(OC(=O)C34CCC(C)(C)CC3C3=CCC5C6(C)CCC(OC7OC(COC8OCC(O)C(O)C8OC8OCC(O)C(O)C8O)C(O)C(O)C7O)C(C)(C)C6CCC5(C)C3(C)CC4O)C(OC3OC(C)C(OC4OCC(O)C(OC5OCC(O)C(O)C5O)C4O)C(O)C3O)C(OC(=O)/C(C)=C/CCC(C)(O)C=C)C2O)OC(C)C(O)C1O (stereo not drawn) [A21] | 56.7 µM | 11.64 µM | 97.3 ± 1.1% | 0.63 ± 0.07 µM | 90.03 |  |  |  |  |  |  |
| C/C=C(\C)C(=O)OC1C(OC(C)=O)C2(C(=O)O)C(CC1(C)C)C1=CCC3C4(C)CCC(OC5OC(CO)C(O)C(OC6OC(CO)C(O)C(OC7OC(C)C(O)C(O)C7O)C6O)C5O)C(C)(C)C4CCC3(C)C1(C)C(OC(C)=O)C2OC(C)=O (stereo not drawn) [A18] | 94.8 µM | 7.18 µM | 45 ± 2.9% |  |  |  |  |  |  |  |  |
| C=CC(C)(O)CC/C=C(\C)C(=O)OC1C(O)C(CO)OC(OC(=O)C23CCC(C)(C)CC2C2=CCC4C5(C)CCC(OC6OC(COC7OCC(OC(C)=O)C(O)C7OC7OC(COC(C)=O)C(O)C(O)C7O)C(O)C(O)C6OC6OCC(O)C(O)C6O)C(C)(C)C5CCC4(C)C2(C)C(O)C3O)C1OC1OCC(OC2OCC(O)C(OC3OCC(O)C(O)C3O)C2O)C(O)C1O (stereo not drawn) [A20] | 50.2 µM | 18.85 µM | 96 ± 1.5% | 0.087 ± 0.01 µM | 576.67 |  |  |  |  |  |  |
| C/C=C(/C)C(=O)OC1CC(C)(C)CC2C3=CCC4C5(C)CCC(OC6OC(C)C(OC7OC(C(=O)O)C(O)C(OC8OC(CO)C(O)C(O)C8OC8OC(CO)C(O)C(O)C8O)C7O)C(O)C6O)C(C)(C)C5CCC4(C)C3(C)C(OC(=O)/C=C/C=C/C=C/CCC)C(OC(C)=O)C12CO (stereo not drawn) [A15] | > 100 µM | >100 µM |  |  | 25.38 | 3.94 ± 0.13 µM | 92 ± 1.6% |  |  |  |  |
| CC(=O)OCC1OC(OC2COC(OC3COC(OC4C(OC5C(CO)OC(OC6CCC7(C)C(CCC8(C)C7CC=C7C9CC(C)(C)CCC9(C(=O)OC9OC(CO)C(O)C(O)C9OC9OCC(O)C(OC%10OCC(O)(CO)C%10O)C9O)C(O)CC78C)C6(C)C)C(O)C5O)OCC(O)C4O)C(O)C3O)C(O)C2O)C(OC(=O)/C=C/c2ccccc2)C(O)C1OC(C)=O (stereo not drawn) [A06] | 25.2 µM | 8.9 µM |  | 0.01 ± 0.004 µM | 2520 |  |  | 94.7 ± 1.1% |  |  |  |
| C=CC(C)(O)CC/C=C(\C)C(=O)OC1C(O)C(CO)OC(OC(=O)C23CCC(C)(C)CC2C2=CCC4C5(C)CCC(OC6OC(COC7OCC(OC(C)=O)C(O)C7OC7OC(COC(C)=O)C(O)C(O)C7OC(C)=O)C(O)C(O)C6OC6OCC(O)C(O)C6O)C(C)(C)C5CCC4(C)C2(C)C(O)C3O)C1OC1OCC(OC2OCC(O)C(OC3OCC(O)C(O)C3O)C2O)C(O)C1O (stereo not drawn) [A19] | 17.9 µM | 1.17 µM |  | 0.041 ± 0.005 µM | 435.61 |  |  |  | 94.8 ± 1.6% |  |  |
| C=CC(C)(O)CC/C=C(\C)C(=O)O[C@H]1[C@H](O)[C@@H](CO)OC(OC(=O)[C@]23CCC(C)(C)CC2C2=CCC4[C@@]5(C)CC[C@H](OC6O[C@H](COC7OC[C@H](O)[C@H](O)[C@H]7OC7OC[C@@H](O)[C@H](O)[C@H]7O)[C@@H](O)[C@H](O)[C@H]6O)C(C)(C)C5CC[C@@]4(C)[C@]2(C)CC3)[C@@H]1OC1OC(C)C(OC2OC[C@@H](O)[C@H](OC3OC[C@@H](O)[C@H](O)[C@H]3O)[C@H]2O)C(O)C1O (stereo partly drawn) [A25] | 64.1 µM | 10.29 µM | 96.5 ± 0.8% | 0.36 ± 0.016 µM | 178.08 |  |  |  |  |  |  |
| C=CC(C)(O)CCCC(C)C(=O)OC1C(OC2OCC(OC3OC(CO)C(O)C(O)C3O)C(OC3OCC(O)C(OC4OC(CO)C(O)C(O)C4O)C3O)C2O)COC(OC(=O)C23CCC(C)(C)CC2C2=CCC4C5(C)CCC(OC6OC(CO)C(OC7OC(CO)C(O)C(OC8OCC(O)C(O)C8O)C7O)C(O)C6O)C(C)(C)C5CCC4(C)C2(C)CC3O)C1O (stereo not drawn) [A10] | 39.1 µM | 2.2 µM |  | 0.31 ± 0.04 µM | 126.13 |  |  |  |  | 95.7 ± 0.6% |  |
| C/C=C(/C)C(=O)OC1C(O)C(C)(C)CC2C3=CCC4C5(C)CCC(OC6OC(C(=O)O)C(O)C(OC7OCC(O)C(O)C7O)C6OC6OC(CO)C(O)C(O)C6O)C(C)(C)C5CCC4(C)C3(C)C(OC(C)=O)C(O)C21CO (stereo not drawn) [A11] | 29.8 µM | 6.1 µM |  |  |  |  |  |  |  |  | 28.3 ± 9.1% |
